From US20230257376A1, “ROCK INHIBITOR, AND PREPARATION METHOD THEREFOR AND USE THEREOF” (WUHAN LL SCIENCE AND TECHNOLOGY DEVELOPMENT CO., LTD., priority 2020, published 2023)

Columns and labels:
[1] = target: T1, ROCK2 kinase (Homo sapiens, UniProt O75116); assay: In vitro evaluation of ROCK2 kinase activity (HTRF KinEASE-STK time-resolved fluorometric assay); type: biochemical; conditions: ROCK2 kinase 0.4 ng/μL, ATP 6.739 μM
T1 construct: purchased Invitrogen PV3759
Outline: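 Recombinant kinase (0.4 ng/μL final) preincubated 0.5 h at RT with compound (1% DMSO), then 2 h with 6.739 μM ATP and 1 μM biotinylated STK substrate 2 (final). HTRF readout via STK antibody-cryptate/streptavidin-XL665 after ~1 h; buffer 5 mM MgCl2, 1 mM DTT.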

[2] = target: T2, ROCK1 kinase (Homo sapiens, UniProt Q13464); assay: In vitro evaluation of ROCK1 kinase selectivity (HTRF KinEASE-STK time-resolved fluorometric assay); type: biochemical; conditions: ROCK1 kinase 0.4 ng/μL, ATP 3.53 μM
T2 construct: purchased Invitrogen
Outline: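 HTRF KinEASE-STK assay with ROCK1 at 0.4 ng/μL final, preincubated with compound (1% DMSO) 0.5 h at room temperature. Reaction ran 2 h at room temperature with 3.53 μM ATP and 1 μM biotinylated STK-substrate 2, then detection via STK antibody-cryptate/streptavidin-XL665 after ~1 h.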

[3] = In vitro cytotoxicity assay in HepG2 cells using the CCK-8 method; type: cell-based; conditions: human
Procedure: In vitro cytotoxicity assay for the compounds disclosed herein was performed in HepG2 cells using the CCK-8 method. HepG2 cells (Beina Bio) in the logarithmic growth phase were collected, the concentration of cell suspension was adjusted, and then the cells were plated on a 96-well cell culture plate at 50,000 cells/well. The cells were then incubated overnight in a cell incubator (5%, 37° C.), and after 80-90% cell confluence was achieved, test compound at each concentration gradient or vehicle (DMSO) was added after medium change. The resulting mixture was incubated in the cell incubator (5%, 37° C.) for 48 h. After the treatment, the medium in the plate was discarded. The plate was washed twice with PBS, added with CCK-8 working solution (Beyotime) at 100 μL per well, and then incubated at 37° C. for 1.5 h in the dark. Absorbance at OD450 nm mil was measured for each well on a microplate reader, and CC50 value of each compound was analyzed and calculated.

[4] = In vitro metabolic stability, human liver microsome incubation; type: in vitro ADME; conditions: liver microsomes, 1 mg/mL protein, 37° C., read-out: T1/2 in human liver microsome
Procedure: (§1) The in vitro metabolic stability of the compounds disclosed herein was determined through incubation of liver microsomes of various species. A proper amount of test compound was added into a liver microsome reaction system (1 mg/mL liver microsome protein, 25 U/mL glucose-6 phosphate dehydrogenase, 1 mM NADP, 6 mM D-glucose 6-phosphate and 5 mM MgCl2), and then the mixture was incubated in a water bath kettle at 37° C. to start reaction. At each time point, 100 μL of the reaction liquid was added into a centrifuge tube containing 400 μL of internal standard working solution (containing a 200 ng/mL solution of dexamethasone, diclofenac, tolbutamide and labetalol in acetonitrile) precooled at 0° C. so as to stop the reaction, and the mixture was then centrifuged at 10,000 g for 10 min at 4° C. The supernatant was collected for LC-MS assay so as to obtain the values of in vitro metabolic half-life of the test compounds in liver microsomes of various species.

[5] = In vitro metabolic stability, rat liver microsome incubation; type: in vitro ADME; conditions: liver microsomes, 1 mg/mL protein, 37° C., read-out: T1/2 in rat liver microsome
Procedure: as §1

[6] = In vitro metabolic stability, guinea pig liver microsome incubation; type: in vitro ADME; conditions: liver microsomes, 1 mg/mL protein, 37° C., read-out: T1/2 in guinea pig liver microsome
Procedure: as §1

[7] = In vivo pharmacokinetic study in mice; conditions: mouse, plasma; for bioavailability: 1 mg/kg Po (fasted) vs 1 mg/kg Iv; for AUC(0-t) / Cmax: 1 mg/kg
Text: […] After administration, plasma of mice was collected at specific time points, and the concentration of the compound in the plasma was detected by LC-MS/MS (AB SCIEX Qtrap4500). The PK parameters of the compounds were statistically analyzed and calculated (WinNonlin V5.2, Pharsight) to show the pharmacokinetic properties of the compounds disclosed herein in mice.

T1 sequence (O75116 whole entry): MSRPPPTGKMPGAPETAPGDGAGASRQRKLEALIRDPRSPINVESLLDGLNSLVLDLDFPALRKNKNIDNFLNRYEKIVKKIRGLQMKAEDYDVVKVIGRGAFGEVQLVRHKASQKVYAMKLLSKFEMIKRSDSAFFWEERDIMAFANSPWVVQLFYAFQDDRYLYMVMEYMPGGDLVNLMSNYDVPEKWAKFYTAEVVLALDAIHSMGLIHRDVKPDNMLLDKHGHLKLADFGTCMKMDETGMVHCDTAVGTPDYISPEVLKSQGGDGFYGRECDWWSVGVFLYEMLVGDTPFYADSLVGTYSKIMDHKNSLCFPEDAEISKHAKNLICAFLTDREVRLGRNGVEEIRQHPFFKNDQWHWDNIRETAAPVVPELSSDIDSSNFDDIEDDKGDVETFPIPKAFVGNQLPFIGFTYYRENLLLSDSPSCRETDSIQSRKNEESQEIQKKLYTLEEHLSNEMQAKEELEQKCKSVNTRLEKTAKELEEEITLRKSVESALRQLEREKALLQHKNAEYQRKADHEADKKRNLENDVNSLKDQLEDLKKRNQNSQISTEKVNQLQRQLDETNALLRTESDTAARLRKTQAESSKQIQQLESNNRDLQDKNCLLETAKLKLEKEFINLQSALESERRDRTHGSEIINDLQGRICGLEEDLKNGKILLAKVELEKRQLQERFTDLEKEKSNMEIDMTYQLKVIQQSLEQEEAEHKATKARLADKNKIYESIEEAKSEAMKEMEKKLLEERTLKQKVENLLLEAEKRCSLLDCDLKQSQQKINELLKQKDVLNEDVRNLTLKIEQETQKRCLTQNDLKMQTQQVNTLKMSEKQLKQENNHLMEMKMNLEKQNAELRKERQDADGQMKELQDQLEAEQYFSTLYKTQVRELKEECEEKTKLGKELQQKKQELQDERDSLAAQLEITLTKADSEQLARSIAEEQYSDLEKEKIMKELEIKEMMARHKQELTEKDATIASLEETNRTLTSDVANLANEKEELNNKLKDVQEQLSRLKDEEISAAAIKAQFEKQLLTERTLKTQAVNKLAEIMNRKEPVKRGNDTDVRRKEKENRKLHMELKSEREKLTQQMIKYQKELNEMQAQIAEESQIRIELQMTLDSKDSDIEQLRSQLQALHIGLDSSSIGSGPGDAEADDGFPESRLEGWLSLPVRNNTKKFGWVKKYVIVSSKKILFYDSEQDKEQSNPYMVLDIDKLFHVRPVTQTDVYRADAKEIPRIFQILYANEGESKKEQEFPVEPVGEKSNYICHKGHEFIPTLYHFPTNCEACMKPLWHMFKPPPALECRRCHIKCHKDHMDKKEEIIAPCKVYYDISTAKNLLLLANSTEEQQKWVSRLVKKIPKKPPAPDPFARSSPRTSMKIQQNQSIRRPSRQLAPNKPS
T2 sequence (Q13464 whole entry): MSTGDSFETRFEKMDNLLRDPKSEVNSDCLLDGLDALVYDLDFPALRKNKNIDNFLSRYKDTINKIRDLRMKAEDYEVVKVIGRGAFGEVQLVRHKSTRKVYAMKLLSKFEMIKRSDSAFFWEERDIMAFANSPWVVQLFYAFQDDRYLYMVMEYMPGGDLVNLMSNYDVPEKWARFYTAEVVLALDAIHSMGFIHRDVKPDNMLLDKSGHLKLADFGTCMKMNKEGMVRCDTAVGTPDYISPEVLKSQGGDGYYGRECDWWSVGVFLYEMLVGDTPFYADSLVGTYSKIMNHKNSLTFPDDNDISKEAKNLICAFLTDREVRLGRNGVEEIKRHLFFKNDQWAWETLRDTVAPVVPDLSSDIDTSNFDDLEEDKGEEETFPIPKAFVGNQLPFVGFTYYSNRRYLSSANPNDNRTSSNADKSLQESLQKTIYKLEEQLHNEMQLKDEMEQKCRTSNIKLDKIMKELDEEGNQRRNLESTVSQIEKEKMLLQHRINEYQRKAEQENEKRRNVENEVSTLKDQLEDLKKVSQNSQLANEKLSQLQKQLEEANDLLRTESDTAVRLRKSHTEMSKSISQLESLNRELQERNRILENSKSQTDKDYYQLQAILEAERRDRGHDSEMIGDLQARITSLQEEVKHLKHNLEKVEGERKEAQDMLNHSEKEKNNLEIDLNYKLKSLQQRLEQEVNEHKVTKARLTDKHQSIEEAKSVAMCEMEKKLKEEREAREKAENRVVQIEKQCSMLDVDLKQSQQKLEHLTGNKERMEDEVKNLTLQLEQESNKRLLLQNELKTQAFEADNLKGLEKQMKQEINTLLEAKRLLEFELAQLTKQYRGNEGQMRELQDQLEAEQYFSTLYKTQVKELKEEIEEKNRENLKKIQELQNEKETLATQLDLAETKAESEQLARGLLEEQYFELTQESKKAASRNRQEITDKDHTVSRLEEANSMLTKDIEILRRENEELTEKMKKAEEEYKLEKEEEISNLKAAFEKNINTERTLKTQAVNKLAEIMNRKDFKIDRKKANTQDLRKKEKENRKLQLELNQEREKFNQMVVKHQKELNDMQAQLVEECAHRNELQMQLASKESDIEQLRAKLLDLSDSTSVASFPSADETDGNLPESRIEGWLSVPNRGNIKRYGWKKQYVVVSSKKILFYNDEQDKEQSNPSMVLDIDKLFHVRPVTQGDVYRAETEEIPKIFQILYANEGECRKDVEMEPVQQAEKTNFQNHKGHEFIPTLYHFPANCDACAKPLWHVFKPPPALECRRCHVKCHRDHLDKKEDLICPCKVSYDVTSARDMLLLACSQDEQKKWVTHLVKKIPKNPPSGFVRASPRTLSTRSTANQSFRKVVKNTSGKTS

Structure (SMILES)	IC50 [1]	IC50 [2]	CC50 at 48 h [3]	half-life [4]	half-life [5]	half-life [6]	bioavailability [7]	AUC(0-t) ([7]; Iv)	Cmax ([7]; Iv)	AUC(0-t) ([7]; Po (fasted))	Cmax ([7]; Po (fasted))
Cn1c(C(=O)N2CC(F)(F)C2)cc2c1CN(c1nccc(Nc3ccc(-c4cn[nH]c4)cc3)n1)CC2 [Compound L005, (6-(4-((4-(1H-pyrazol-4-yl)phenyl)amino)pyrimidin-2-yl)-1-methyl-4,5,6,7-tetrahydro-1H-pyrrolo[2,3-c]pyridin-2-yl)(3,3-difluoroazetidin-1-yl)methanone]	≤ 0.05 µM	> 4.5 µM	> 100 µM	2.92 h	1.72 h	1.08 h	59.7%	120 ng·h/mL	155 ng/mL	71.8 ng·h/mL	37.2 ng/mL
Cn1c(C(=O)N2CC(F)(F)C2)cc2c1CN(c1ncnc(Nc3ccc(-c4cn[nH]c4)cc3)n1)CC2 [Compound L036, (6-(4-((4-(1H-pyrazol-4-yl)phenyl)amino)-1,3,5-triazin-2-yl)-1-methyl-4,5,6,7-tetrahydro-1H-pyrrolo(2,3-c)pyridin-2-yl)(3,3-difluoroazetidin-1-yl)methanone]	0.05 to 0.5 µM	> 4.5 µM	> 100 µM	2.97 h	1.57 h	1.25 h	59.9%	349 ng·h/mL	473 ng/mL	209 ng·h/mL	98.7 ng/mL
Cn1c(C(=O)N2CC(F)(F)C2)cc2c1CN(c1ncc(F)c(Nc3ccc(-c4cn[nH]c4)cc3)n1)CC2 [Compound L027, (6-(4-((4-(1H-pyrazol-4-yl)phenyl)amino)-5-fluoropyrimidin-2-yl)-1-methyl-4,5,6,7-tetrahydro-1H-pyrrolo[2,3-c]pyridin-2-yl)(3,3-difluoroazetidin-1-yl)methanone]	≤ 0.05 µM	> 4.5 µM	> 100 µM	0.956 h	2.11 h	10.3 h	82.7%	412 ng·h/mL	517 ng/mL	341 ng·h/mL	116 ng/mL
